In patent publication US7939509B2, “Partial and full agonists of A1 adenosine receptors” (Gilead Sciences, Inc., priority 2002, dated 2011):

Tests used:
Format in all cases: in vivo, rat
normal rats = test: Triglyceride production after Triton WR 1339 injection in rats
Description: FIG. 3 graphs the time-dependent increase of TG caused by Triton […] in the absence or presence of Compound A as described in Example 31. After a 4 hour fast, rats received either vehicle or Compound A (5 mg/kg) via SC injection. After 5 minutes, Triton (400 mg/kg) was given as a slow intravenous bolus. Data are presented as ±SEM of values from 7-8 animals. Slope of the lines (determined by linear regression analysis) was 5.6±0.1 and 3.8±0.2 for vehicle and Compound A groups, respectively. Data were analyzed using 2 way ANOVA followed by Bonferroni's post hoc test.
(§1) The anti-lipolytic effects of Compound A were studied in awake rats. Animals were fasted overnight before experimental use. On the day of the experiment, animals were put in metabolic cages and left undisturbed to acclimate to the environment for 1-2 hrs. An infusion set (21 G×¾″, 0.8×19 mm U.T.W., 3½″, 9 cm tubing, volume 0.15 ml) was connected to the arterial catheter for blood sampling. A 1% sodium citrate saline solution was used to flush the lines. A pre-treatment blood sample was obtained from each animal to determine baseline values for FFA and TG. Compound A was given via oral gavage, sc injection, iv injection, or iv infusion, as described, for each different series of experiments. Blood samples were collected into serum separator tubes (Becton Dickinson, Franklin Lakes, N.J.) at pre-determined times, Blood was allowed to clot, and then centrifuged at 8000 rpm for 4 min at 4° C. The serum was stored at −80° C. and was thawed at 4° C. for determinations of FFA and TG contents.
Compound A was synthesized by the Department of Medicinal and Bio-Organic chemistry of CV Therapeutics, Inc. Sodium citrate and Triton WR1339 were purchased from Sigma (St. Louis, Mo.). […] Serum FFA and TGs were measured using commercial kits from Wako Chemicals, Richmond, Va. Glucose and Insulin were measured using commercial kits from Wako Chemicals USA (Richmond, Va.).
To further investigate the mechanism of the decrease in TG levels by Compound A, total TG production was measured in normal rats. […]

awake rats [1] = test: Serum triglyceride (TG) levels in overnight-fasted awake rats
Description: All experimental procedures were performed under a protocol approved by the Institutional Animal Care and Use Committee of CV Therapeutics, Inc., and in accordance with the recommendations set forth in the Guide for the Care and Use of Laboratory Animals published by the National Research Council. Male Sprague-Dawley rats (225-250 gm) with either one or two indwelling catheters (carotid and jugular) were purchased from Charles River Laboratories (Wilmington, Mass.). Animals were housed 1 per cage in a room maintained on a 12 h light/dark cycle (light on 06.00-18.00 h) under constant temperature (22-25° C.) and with ad libitum access to food and water.
as §1
Compound A was synthesized by the Department of Medicinal and Bio-Organic chemistry of CV Therapeutics, Inc. Sodium citrate and Triton WR1339 were purchased from Sigma (St. Louis, Mo.). Nicotinic acid and PEG 400 were purchased from VWR (by EMD Chemicals). Triton WR 1339 was diluted in warm saline (˜37° C.) with frequent vortexing. Nicotinic acid was dissolved in saline. Compound A was dissolved in PEG 400, and then diluted with distilled water to make a 20% PEG drug solution. Serum FFA and TGs were measured using commercial kits from Wako Chemicals, Richmond, Va. Glucose and Insulin were measured using commercial kits from Wako Chemicals USA (Richmond, Va.).
All data are reported as mean±SEM. Statistical analysis of data from experiments with 2 treatment groups was performed using the unpaired Student's t-test. Two way analysis of variance followed by Bonferroni's test was used for multiple comparisons. Differences among treatment groups were considered to be significant when the probability of their occurrence by chance alone was <0.05.

awake rats [2] = test: Cardiovascular measurements (heart rate, blood pressure) by telemetry in awake rats
Description: FIG. 7 presents the time-course of the effect of Compound A on (A) heart rate and (B) mean arterial pressure in awake rats as measured by telemetry. Compound A was given at various does (1, 5, and 25 mg·kg) by oral gavage at time 0. Each data point is the mean of individual values from the number of experiments indicated in parenthesis. The initial transient (10 Minutes) increase in heart rate subsequent to the injection of vehicle or Compound A is due to the stress caused by handling of the animals.
The effects of Compound A on heart rate and blood pressure were determined in a separate group of animals as heart rate is very easily affected in the un-anesthetized animal by animal handling and blood sampling. Rats were instrumented with radiotelemetered transmitters (Data Sciences) at least 3 weeks prior to experimentation. The ECG, blood pressure and temperature were recorded and heart rate calculated using a Dataquest ART Gold system (Version 2.2; Data Sciences Intl). The system consisted of a transmitter, i.e., biopotential sensor (Model TL11M2-C50-PXT), receivers (Model RPC-1), a consolidation matrix (BCM 100), a personal computer (Compaq DeskPro Series 3574) and Dataquest 4 software. Heart rate, blood pressure and temperature were measured at 5-minute intervals. Each recording lasted 10 seconds and all cardiac cycles within this period were averaged.

**Q.** Which results are given for `O[C@@H]1[C@H](O)[C@@H](CSc2ccccc2F)O[C@H]1n1cnc2c(N[C@@H]3CCC[C@H]3O)ncnc21` [Compound A, 2-{6-[((1R,2R)-2-hydroxycyclopentyl)amino]purin-9-yl}(4S,5S,2R,3R)-5-[(2-fluorophenylthio)methyl]oxolane-3,4-diol]?
**A.** increase in serum TG caused by Triton vs vehicle-treated animals (normal rats; 180 minutes post-treatment, p<0.01): significantly less; slope of the time-dependent TG increase caused by Triton (linear regression) (normal rats; FIG. 3 legend: 5 mg/kg SC, Triton 400 mg/kg iv, 4 hour fast, vehicle 5.6±0.1): 3.8±0.2; TG accumulation, slope of the line (linear regression) (normal rats; text: Triton 600 mg/kg, vehicle printed as 3.8±0.17, p<0.001): 5.6 ± 0.12 mg/dL/min; decrease in TG levels (awake rats [1]; 2.5 mg/kg oral gavage): 36%; serum TG level (awake rats [1]; 2.5 mg/kg oral gavage, from 54±4 mg/dl, p<0.05): 35 ± 4 mg/dL; reduction in TG levels compared to vehicle-treated rats (awake rats [1]; 5 mg/kg oral gavage): 41%; serum TG level (awake rats [1]; 5 mg/kg oral gavage, p<0.01): 32 ± 4 mg/dL; reduction in TG levels compared to vehicle-treated rats (awake rats [1]; 10 mg/kg oral gavage): 58%; serum TG level (awake rats [1]; 10 mg/kg oral gavage, p<0.01): 23 ± 1 mg/dL; reduction of serum triglyceride levels, dose dependence (awake rats [1]; 2.5, 5, 10 mg/kg oral gavage): dose-dependent manner; decrease in heart rate (calculated as area under the curve) (awake rats [2]; 25 mg/kg oral gavage): 13±1%; effect on heart rate on increasing the dose (awake rats [2]; 50 mg/kg (data not shown)): no further decrease; effect on heart rate (awake rats [2]; 1 and 5 mg/kg oral gavage): did not have a significant effect; effect on blood pressure (awake rats [2]; at the doses used (1, 5, 25 mg/kg oral gavage)): did not have any significant effect
